In ChEMBL document CHEMBL4507256 (2021):
pKi: −log10 of the molar value.

Assays:
[1] = molecular target: Mitogen-activated protein kinase kinase kinase 3 (Homo sapiens) (UniProt Q99759); conditions: Compound concentration 1000.0 nM
[2] = molecular target: Mitogen-activated protein kinase 3 (Homo sapiens) (UniProt P27361); conditions: Compound concentration 1000.0 nM
[3] = molecular target: TRAF2 and NCK-interacting protein kinase (Homo sapiens) (UniProt Q9UKE5); conditions: Compound concentration 1000.0 nM
[4] = molecular target: Serine/threonine-protein kinase PAK 4 (Homo sapiens) (UniProt O96013); conditions: Compound concentration 1000.0 nM
[5] = molecular target: Megakaryocyte-associated tyrosine-protein kinase (Homo sapiens) (UniProt P42679); conditions: Compound concentration 1000.0 nM
[6] = molecular target: Serine/threonine-protein kinase RIO3 (Homo sapiens) (UniProt O14730); conditions: Compound concentration 1000.0 nM
[7] = molecular target: Fibroblast growth factor receptor 3 (Homo sapiens) (UniProt P22607); conditions: Compound concentration 1000.0 nM
[8] = molecular target: Serine/threonine-protein kinase Nek5 (Homo sapiens) (UniProt Q6P3R8); conditions: Compound concentration 1000.0 nM
[9] = molecular target: Sigma non-opioid intracellular receptor 1 (Homo sapiens, UniProt Q99720); assay: GPCRScan assay: inhibition of Sigma 1; design: radioligand conc. used [nm] 4.0 – 5.0, parental cells HEKT; conditions: for pKi: read-out: Ki
[10] = molecular target: Phosphatidylinositol 4-phosphate 5-kinase type-1 gamma (Homo sapiens) (UniProt O60331); conditions: Compound concentration 1000.0 nM
[11] = molecular target: Ephrin type-A receptor 4 (Homo sapiens) (UniProt P54764); conditions: Compound concentration 1000.0 nM
[12] = molecular target: T1, Muscarinic acetylcholine receptor M2 (Homo sapiens) (UniProt P08172); conditions: Compound concentration 10.0 uM
T1 sequence (whole entry): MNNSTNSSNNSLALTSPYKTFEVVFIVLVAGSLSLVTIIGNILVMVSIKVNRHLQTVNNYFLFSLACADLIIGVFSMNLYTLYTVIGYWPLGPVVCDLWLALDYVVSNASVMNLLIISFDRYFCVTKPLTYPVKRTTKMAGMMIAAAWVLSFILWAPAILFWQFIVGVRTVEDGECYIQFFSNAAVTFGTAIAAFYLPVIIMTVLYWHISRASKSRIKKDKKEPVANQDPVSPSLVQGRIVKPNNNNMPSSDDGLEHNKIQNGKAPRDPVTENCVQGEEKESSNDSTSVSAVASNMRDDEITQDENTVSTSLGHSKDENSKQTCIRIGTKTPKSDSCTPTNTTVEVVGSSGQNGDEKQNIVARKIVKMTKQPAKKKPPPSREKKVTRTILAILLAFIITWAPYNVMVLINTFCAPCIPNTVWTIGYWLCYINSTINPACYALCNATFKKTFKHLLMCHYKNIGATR

[13] = molecular target: LIM domain kinase 1 (Homo sapiens) (UniProt P53667); conditions: Compound concentration 1000.0 nM
[14] = molecular target: Serine/threonine-protein kinase BRSK2 (Homo sapiens) (UniProt Q8IWQ3); conditions: Compound concentration 1000.0 nM
[15] = molecular target: Serine/threonine-protein kinase Nek11 (Homo sapiens) (UniProt Q8NG66); conditions: Compound concentration 1000.0 nM
[16] = molecular target: Dual specificity mitogen-activated protein kinase kinase 1 (Homo sapiens) (UniProt Q02750); conditions: Compound concentration 1000.0 nM
[17] = molecular target: NUAK family SNF1-like kinase 2 (Homo sapiens) (UniProt Q9H093); conditions: Compound concentration 1000.0 nM
[18] = molecular target: Vascular endothelial growth factor receptor 1 (Homo sapiens) (UniProt P17948); conditions: Compound concentration 1000.0 nM
[19] = molecular target: Ephrin type-A receptor 5 (Homo sapiens) (UniProt P54756); conditions: Compound concentration 1000.0 nM
[20] = test system: Mast/stem cell growth factor receptor Kit (Homo sapiens), P10721 [A829P]; conditions: Compound concentration 1000.0 nM
[21] = molecular target: Serine/threonine-protein kinase NIM1 (Homo sapiens) (UniProt Q8IY84); conditions: Compound concentration 1000.0 nM
[22] = molecular target: Cyclin-dependent kinase 8 (Homo sapiens) (UniProt P49336); conditions: Compound concentration 1000.0 nM
[23] = test system: ALK tyrosine kinase receptor (Homo sapiens), Q9UM73 [L1196M]; conditions: Compound concentration 1000.0 nM
[24] = molecular target: Death-associated protein kinase 3 (Homo sapiens) (UniProt O43293); conditions: Compound concentration 1000.0 nM
[25] = molecular target: Angiopoietin-1 receptor (Homo sapiens) (UniProt Q02763); conditions: Compound concentration 1000.0 nM
[26] = molecular target: Activin receptor type-2B (Homo sapiens) (UniProt Q13705); conditions: Compound concentration 1000.0 nM
[27] = molecular target: Cytoplasmic tyrosine-protein kinase BMX (Homo sapiens) (UniProt P51813); conditions: Compound concentration 1000.0 nM
[28] = molecular target: D(2) dopamine receptor (Homo sapiens) (UniProt P14416); conditions: Compound concentration 10.0 uM
[29] = molecular target: Dual serine/threonine and tyrosine protein kinase (Homo sapiens) (UniProt Q6XUX3); conditions: Compound concentration 1000.0 nM
[30] = molecular target: Dual specificity protein kinase CLK3 (Homo sapiens) (UniProt P49761); conditions: Compound concentration 1000.0 nM
[31] = molecular target: Ribosomal protein S6 kinase alpha-4 (Homo sapiens) (UniProt O75676); conditions: Compound concentration 1000.0 nM
[32] = molecular target: Receptor-interacting serine/threonine-protein kinase 4 (Homo sapiens) (UniProt P57078); conditions: Compound concentration 1000.0 nM
[33] = molecular target: Serine/threonine-protein kinase DCLK2 (Homo sapiens) (UniProt Q8N568); conditions: Compound concentration 1000.0 nM
[34] = molecular target: Phosphatidylinositol 4-phosphate 3-kinase C2 domain-containing subunit beta (Homo sapiens) (UniProt O00750); conditions: Compound concentration 1000.0 nM
[35] = molecular target: 5-hydroxytryptamine receptor 5A (Homo sapiens) (UniProt P47898); conditions: Compound concentration 10.0 uM
[36] = molecular target: Dual specificity testis-specific protein kinase 1 (Homo sapiens) (UniProt Q15569); conditions: Compound concentration 1000.0 nM
[37] = molecular target: Tyrosine-protein kinase Tec (Homo sapiens) (UniProt P42680); conditions: Compound concentration 1000.0 nM
[38] = molecular target: Cyclin-dependent kinase 4 (Homo sapiens) (UniProt P11802); conditions: Compound concentration 1000.0 nM
[39] = molecular target: Serine/threonine-protein kinase Sgk3 (Homo sapiens) (UniProt Q96BR1); conditions: Compound concentration 1000.0 nM

Chain of Sigma non-opioid intracellular receptor 1 (Q99720 whole entry): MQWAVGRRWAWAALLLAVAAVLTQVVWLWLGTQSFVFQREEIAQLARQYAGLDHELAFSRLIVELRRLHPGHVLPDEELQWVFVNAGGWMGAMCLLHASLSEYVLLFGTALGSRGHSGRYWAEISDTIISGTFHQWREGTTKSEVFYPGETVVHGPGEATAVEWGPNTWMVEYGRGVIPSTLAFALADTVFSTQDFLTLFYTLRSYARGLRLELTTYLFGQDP
Chain of Cyclin-dependent kinase 8 (Homo sapiens) (P49336 whole entry): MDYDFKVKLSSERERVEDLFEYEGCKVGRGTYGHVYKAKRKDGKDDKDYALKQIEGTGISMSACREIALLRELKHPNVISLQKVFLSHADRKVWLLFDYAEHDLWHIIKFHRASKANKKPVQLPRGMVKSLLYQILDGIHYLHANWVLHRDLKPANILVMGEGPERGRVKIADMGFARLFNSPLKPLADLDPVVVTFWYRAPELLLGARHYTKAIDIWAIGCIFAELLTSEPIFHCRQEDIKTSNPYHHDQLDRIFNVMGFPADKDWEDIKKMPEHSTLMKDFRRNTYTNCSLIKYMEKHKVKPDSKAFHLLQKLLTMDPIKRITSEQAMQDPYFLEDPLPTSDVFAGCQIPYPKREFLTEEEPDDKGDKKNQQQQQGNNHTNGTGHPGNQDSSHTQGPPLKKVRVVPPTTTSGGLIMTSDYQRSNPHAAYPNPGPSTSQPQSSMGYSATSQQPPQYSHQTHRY
Chain of Fibroblast growth factor receptor 3 (Homo sapiens) (P22607 23-806 limits assumed): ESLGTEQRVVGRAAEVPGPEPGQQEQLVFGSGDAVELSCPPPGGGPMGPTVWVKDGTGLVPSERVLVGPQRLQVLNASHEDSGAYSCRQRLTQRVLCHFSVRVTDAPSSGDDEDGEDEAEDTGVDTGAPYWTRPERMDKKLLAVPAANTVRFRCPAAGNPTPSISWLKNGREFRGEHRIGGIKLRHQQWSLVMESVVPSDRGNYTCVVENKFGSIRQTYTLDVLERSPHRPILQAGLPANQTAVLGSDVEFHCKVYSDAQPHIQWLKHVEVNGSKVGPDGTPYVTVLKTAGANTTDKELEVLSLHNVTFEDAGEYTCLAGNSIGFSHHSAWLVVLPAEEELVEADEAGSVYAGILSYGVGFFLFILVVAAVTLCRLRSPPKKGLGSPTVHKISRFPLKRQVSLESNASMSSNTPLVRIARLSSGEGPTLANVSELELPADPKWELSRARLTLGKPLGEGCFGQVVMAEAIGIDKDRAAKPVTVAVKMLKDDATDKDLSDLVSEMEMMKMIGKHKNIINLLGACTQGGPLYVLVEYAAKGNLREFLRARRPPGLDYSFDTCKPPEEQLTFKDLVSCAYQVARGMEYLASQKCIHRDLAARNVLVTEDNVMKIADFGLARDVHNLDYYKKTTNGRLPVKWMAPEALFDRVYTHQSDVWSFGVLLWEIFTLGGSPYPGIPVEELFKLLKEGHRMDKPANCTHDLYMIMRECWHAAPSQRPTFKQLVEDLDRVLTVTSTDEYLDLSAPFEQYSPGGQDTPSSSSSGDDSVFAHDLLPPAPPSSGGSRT
Chain of Megakaryocyte-associated tyrosine-protein kinase (Homo sapiens) (P42679 whole entry): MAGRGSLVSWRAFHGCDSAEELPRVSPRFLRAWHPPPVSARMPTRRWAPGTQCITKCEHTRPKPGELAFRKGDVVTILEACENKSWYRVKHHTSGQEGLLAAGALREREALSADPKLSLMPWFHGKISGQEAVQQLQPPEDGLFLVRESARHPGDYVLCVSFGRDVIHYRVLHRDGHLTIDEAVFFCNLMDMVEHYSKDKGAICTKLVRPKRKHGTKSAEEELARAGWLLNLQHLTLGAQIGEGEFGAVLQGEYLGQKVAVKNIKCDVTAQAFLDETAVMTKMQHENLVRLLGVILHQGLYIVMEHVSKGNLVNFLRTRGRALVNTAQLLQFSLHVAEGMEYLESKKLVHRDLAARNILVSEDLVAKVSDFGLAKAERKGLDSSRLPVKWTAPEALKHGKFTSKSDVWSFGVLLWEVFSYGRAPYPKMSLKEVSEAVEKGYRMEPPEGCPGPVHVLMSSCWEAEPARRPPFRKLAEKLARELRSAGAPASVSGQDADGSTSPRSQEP
Chain of Phosphatidylinositol 4-phosphate 5-kinase type-1 gamma (Homo sapiens) (O60331 whole entry): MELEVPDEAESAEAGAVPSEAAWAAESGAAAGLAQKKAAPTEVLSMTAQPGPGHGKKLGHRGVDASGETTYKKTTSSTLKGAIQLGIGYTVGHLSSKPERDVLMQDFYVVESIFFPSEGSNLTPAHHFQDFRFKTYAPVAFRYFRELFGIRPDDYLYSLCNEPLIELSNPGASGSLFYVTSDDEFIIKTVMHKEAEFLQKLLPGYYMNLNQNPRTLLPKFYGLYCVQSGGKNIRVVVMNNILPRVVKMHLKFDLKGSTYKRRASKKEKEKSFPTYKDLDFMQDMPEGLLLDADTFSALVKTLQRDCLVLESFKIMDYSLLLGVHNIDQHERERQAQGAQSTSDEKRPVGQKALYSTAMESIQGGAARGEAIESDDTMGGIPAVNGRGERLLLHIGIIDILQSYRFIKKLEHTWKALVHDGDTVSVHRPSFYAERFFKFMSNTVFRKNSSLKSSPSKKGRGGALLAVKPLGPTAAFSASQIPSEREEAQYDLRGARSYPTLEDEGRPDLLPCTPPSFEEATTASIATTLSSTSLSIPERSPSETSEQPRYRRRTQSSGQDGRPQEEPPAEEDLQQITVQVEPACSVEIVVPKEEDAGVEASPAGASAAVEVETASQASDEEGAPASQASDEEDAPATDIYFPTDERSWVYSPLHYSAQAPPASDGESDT
Chain of NUAK family SNF1-like kinase 2 (Homo sapiens) (Q9H093 whole entry): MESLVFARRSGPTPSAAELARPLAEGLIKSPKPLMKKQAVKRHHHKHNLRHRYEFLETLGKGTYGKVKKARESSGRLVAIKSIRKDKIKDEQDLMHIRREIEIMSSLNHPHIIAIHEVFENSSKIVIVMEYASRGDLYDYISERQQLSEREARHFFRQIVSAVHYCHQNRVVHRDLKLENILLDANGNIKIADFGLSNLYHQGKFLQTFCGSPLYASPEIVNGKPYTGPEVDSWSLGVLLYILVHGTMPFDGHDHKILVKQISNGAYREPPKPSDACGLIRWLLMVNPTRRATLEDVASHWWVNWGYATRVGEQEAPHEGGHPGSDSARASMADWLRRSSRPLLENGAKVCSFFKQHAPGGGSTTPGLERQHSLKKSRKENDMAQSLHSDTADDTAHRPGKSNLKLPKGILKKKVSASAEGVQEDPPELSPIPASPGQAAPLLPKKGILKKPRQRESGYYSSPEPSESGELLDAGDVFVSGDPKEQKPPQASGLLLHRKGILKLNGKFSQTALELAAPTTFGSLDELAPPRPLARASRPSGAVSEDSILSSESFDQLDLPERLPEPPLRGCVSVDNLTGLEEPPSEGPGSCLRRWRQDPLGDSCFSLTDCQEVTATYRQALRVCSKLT
Chain of Mast/stem cell growth factor receptor Kit (Homo sapiens), P10721 [A829P] (P10721 whole entry A829P): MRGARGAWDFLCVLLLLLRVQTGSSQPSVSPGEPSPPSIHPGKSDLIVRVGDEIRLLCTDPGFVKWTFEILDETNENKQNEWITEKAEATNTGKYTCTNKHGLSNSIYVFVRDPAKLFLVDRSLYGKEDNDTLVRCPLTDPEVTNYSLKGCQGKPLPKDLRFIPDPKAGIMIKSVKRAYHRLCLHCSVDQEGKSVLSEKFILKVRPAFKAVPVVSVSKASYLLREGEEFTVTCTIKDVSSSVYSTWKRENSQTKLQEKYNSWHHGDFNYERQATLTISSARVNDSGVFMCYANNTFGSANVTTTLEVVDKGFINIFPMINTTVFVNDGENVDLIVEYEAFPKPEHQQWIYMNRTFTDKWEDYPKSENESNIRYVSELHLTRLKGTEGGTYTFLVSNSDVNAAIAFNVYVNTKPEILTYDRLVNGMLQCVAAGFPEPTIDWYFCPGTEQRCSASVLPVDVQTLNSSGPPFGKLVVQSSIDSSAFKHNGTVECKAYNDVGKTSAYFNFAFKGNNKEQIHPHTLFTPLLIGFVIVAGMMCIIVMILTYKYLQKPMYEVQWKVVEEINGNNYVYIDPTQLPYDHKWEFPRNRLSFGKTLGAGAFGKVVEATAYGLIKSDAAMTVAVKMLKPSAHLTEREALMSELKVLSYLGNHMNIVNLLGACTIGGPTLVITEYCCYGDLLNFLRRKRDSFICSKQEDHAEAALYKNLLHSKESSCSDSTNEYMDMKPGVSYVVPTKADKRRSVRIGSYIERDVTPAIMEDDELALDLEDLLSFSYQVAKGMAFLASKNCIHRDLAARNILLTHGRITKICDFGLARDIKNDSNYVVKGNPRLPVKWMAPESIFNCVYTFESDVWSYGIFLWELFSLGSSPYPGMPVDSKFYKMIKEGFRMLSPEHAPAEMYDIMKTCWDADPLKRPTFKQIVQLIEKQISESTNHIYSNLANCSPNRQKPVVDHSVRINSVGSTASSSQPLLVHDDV
Chain of Dual specificity testis-specific protein kinase 1 (Homo sapiens) (Q15569 whole entry, looked up): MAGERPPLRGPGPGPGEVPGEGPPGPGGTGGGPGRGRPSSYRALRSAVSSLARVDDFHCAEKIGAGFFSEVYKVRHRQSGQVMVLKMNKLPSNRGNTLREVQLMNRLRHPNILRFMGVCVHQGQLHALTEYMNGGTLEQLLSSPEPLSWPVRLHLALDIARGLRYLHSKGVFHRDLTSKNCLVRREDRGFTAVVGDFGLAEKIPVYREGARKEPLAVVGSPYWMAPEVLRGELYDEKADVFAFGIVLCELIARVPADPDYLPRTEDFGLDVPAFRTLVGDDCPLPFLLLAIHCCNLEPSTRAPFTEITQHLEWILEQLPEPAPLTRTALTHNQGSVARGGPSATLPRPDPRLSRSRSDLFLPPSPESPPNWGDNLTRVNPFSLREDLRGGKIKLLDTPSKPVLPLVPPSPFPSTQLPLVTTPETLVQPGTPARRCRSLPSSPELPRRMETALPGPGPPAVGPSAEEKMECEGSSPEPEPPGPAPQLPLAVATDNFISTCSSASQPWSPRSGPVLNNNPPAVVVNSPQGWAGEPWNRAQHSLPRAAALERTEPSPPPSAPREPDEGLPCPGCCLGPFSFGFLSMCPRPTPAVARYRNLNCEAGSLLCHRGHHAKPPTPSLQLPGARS

CCC(=N\O)/C(C)=C/c1ccc(F)cc1 [A-079]
6.30: pKi [9]
inactive: residual activity [1] 86% | residual activity [2] 69% | residual activity [3] 93% | residual activity [4] 100% | residual activity [5] 72% | residual activity [6] 78% | residual activity [7] 91% | residual activity [8] 84% | residual activity [10] 100% | residual activity [11] 74% | inhibition [12] 9.31% | residual activity [13] 78% | residual activity [14] 100% | residual activity [15] 100% | residual activity [16] 95% | residual activity [17] 73% | residual activity [18] 87% | residual activity [19] 64% | residual activity [20] 64% | residual activity [21] 94% | residual activity [22] 100% | residual activity [23] 71% | residual activity [24] 87% | residual activity [25] 89% | residual activity [26] 91% | residual activity [27] 83% | inhibition [28] -8.66% | residual activity [29] 66% | residual activity [30] 73% | residual activity [31] 96% | residual activity [32] 83% | residual activity [33] 96% | residual activity [34] 92% | inhibition [35] 3.01% | residual activity [36] 82% | residual activity [37] 89% | residual activity [38] 74% | residual activity [39] 81%
0.457 µM: Ki ([9]; read-out: pKi (converted))

CCC(=N\O)/C(C)=C/c1ccc(F)c(C)c1 [A-226]
inactive: residual activity [1] 100% | residual activity [2] 100% | residual activity [3] 96% | residual activity [4] 76% | residual activity [5] 100% | residual activity [6] 100% | residual activity [7] 96% | residual activity [8] 100% | residual activity [10] 78% | residual activity [11] 100% | inhibition [12] 14.3% | residual activity [13] 100% | residual activity [14] 100% | residual activity [15] 100% | residual activity [16] 95% | residual activity [17] 100% | residual activity [18] 100% | residual activity [19] 79% | residual activity [20] 100% | residual activity [21] 100% | residual activity [22] 73% | residual activity [23] 100% | residual activity [24] 98% | residual activity [25] 85% | residual activity [26] 100% | residual activity [27] 99% | inhibition [28] -6.57% | residual activity [29] 95% | residual activity [30] 100% | residual activity [31] 100% | residual activity [32] 100% | residual activity [33] 83% | residual activity [34] 55% | inhibition [35] -3.24% | residual activity [36] 73% | residual activity [37] 100% | residual activity [38] 100% | residual activity [39] 100%
6.28: pKi [9]
